Source: US20230013669A1, “Antibacterial Treatment Using a Cannabinoid and an Active Agent” (priority 2019, published 2023)
Values joined by “and” are separate entries in the source; they are usually repeats but may differ in a detail not shown here. Equal entries are not always repeated.

Tested on: Pseudomonas aeruginosa ATCC 27853 (GN_042)
Assay: Synergy of cannabidiol with cell-wall disrupting agent (CBD MIC in combination, FICI)
Assay type: cell-based
Procedure: The compounds were stored short term at 4° C.
Analysis was performed using Microsoft Excel.

[1] = CBD with Ceftazidime, Pseudomonas aeruginosa ATCC 27853

## C=C(C)C1CCC(C)=CC1c1c(O)cc(CCCCC)cc1O (centres unmarked) [Cannabidiol, 2-[3-methyl-6-(1-methylethenyl)-2-cyclohexen-1-yl]-5-pentyl-1,3-benzenediol]
Aztreonam at 4 μg/mL
  CBD MIC with Aztreonam: 0.001 µg/mL
CBD with Aztreonam at 0.25 μg/mL, CBD MIC taken as 256 μg/mL
  FICI: 1.0625
CBD with Aztreonam at 1 μg/mL, CBD MIC taken as 256 μg/mL
  FICI: 1.25
CBD with Aztreonam at 2 μg/mL, CBD MIC taken as 256 μg/mL
  FICI: 0.5004 and 0.5039
CBD with Aztreonam at 4 μg/mL, CBD MIC taken as 256 μg/mL
  FICI: 1
CBD with Aztreonam, Synergy table (Table 76)
  FICI range: 0.5
CBD with Aztreonam, all tested concentrations (Table 74)
  FICI range: 0.5-1.25
CBD with Cefepime at 0.015 μg/mL, CBD MIC taken as 256 μg/mL
  FICI: 1
CBD with Cefepime at 0.031 μg/mL, CBD MIC taken as 256 μg/mL
  FICI: 1
CBD with Cefepime at 0.062 μg/mL, CBD MIC taken as 256 μg/mL
  FICI: 1
CBD with Cefepime at 0.25 μg/mL, CBD MIC taken as 256 μg/mL
  FICI: 1.001
CBD with Cefepime at 0.5 μg/mL, CBD MIC taken as 256 μg/mL
  FICI: 1.002
CBD with Cefepime, all tested concentrations (Table 79)
  FICI range: 1-1
CBD with Cefotetan at 4 μg/mL, CBD MIC taken as 256 μg/mL
  FICI: 1.016
CBD with Cefotetan at 16 μg/mL, CBD MIC taken as 256 μg/mL
  FICI: 1.0625
CBD with Cefotetan at 64 μg/mL, CBD MIC taken as 256 μg/mL
  FICI: 1.25
CBD with Cefotetan at 128 μg/mL, CBD MIC taken as 256 μg/mL
  FICI: 1.5
CBD with Cefotetan, Pseudomonas aeruginosa ATCC 27853
  FICI range (MIC table): 1.02-1.5
CBD with Ceftazidime at 0.25 μg/mL, Pseudomonas aeruginosa ATCC 27853
  FICI: 1.0625
CBD with Ceftazidime at 1 μg/mL, Pseudomonas aeruginosa ATCC 27853
  FICI: 1.25
CBD with Ceftazidime at 2 μg/mL, Pseudomonas aeruginosa ATCC 27853
  FICI: 0.5
CBD with Ceftazidime at 4 μg/mL, Pseudomonas aeruginosa ATCC 27853
  FICI: 1
[1]
  FICI range (MIC table): 0.5-1.25
  FICI range (Synergy table): 0.5
CBD with Cefuroxime at 4 μg/mL, Pseudomonas aeruginosa ATCC 27853
  FICI: 1.016
CBD with Cefuroxime at 16 μg/mL, Pseudomonas aeruginosa ATCC 27853
  FICI: 1.0625
CBD with Cefuroxime at 64 μg/mL, Pseudomonas aeruginosa ATCC 27853
  FICI: 1.25
CBD with Cefuroxime at 128 μg/mL, Pseudomonas aeruginosa ATCC 27853
  FICI: 1.5
CBD with Colistin at 0.031 μg/mL, Pseudomonas aeruginosa ATCC 27853
  FICI: 1.031
CBD with Colistin at 0.062 μg/mL, Pseudomonas aeruginosa ATCC 27853
  FICI: 1.062
CBD with Colistin at 0.25 μg/mL, Pseudomonas aeruginosa ATCC 27853
  FICI: 1.25
CBD with Colistin at 0.5 μg/mL, Pseudomonas aeruginosa ATCC 27853
  FICI: 1.5
CBD with Colistin at 1 μg/mL, Pseudomonas aeruginosa ATCC 27853
  FICI: 1
CBD with Colistin, Pseudomonas aeruginosa ATCC 27853
  FICI range (MIC table): 1-1.5
CBD with MCC_6442, Pseudomonas aeruginosa ATCC 27853
  FICI range (MIC table): 1-1.5
CBD with MCC_6442 at 0.25 μg/mL, Pseudomonas aeruginosa ATCC 27853
  FICI: 1.0625
CBD with MCC_6442 at 1 μg/mL, Pseudomonas aeruginosa ATCC 27853
  FICI: 1.25
CBD with MCC_6442 at 2 μg/mL, Pseudomonas aeruginosa ATCC 27853
  FICI: 1.5
CBD with MCC_6442 at 4 μg/mL, Pseudomonas aeruginosa ATCC 27853
  FICI: 1
CBD with Octapeptin C4 at 0.25 μg/mL, CBD MIC taken as 256 μg/mL
  FICI: 1.0625
CBD with Octapeptin C4 at 0.5 μg/mL, CBD MIC taken as 256 μg/mL
  FICI: 1.0625
CBD with Octapeptin C4 at 1 μg/mL, CBD MIC taken as 256 μg/mL
  FICI: 1.25
CBD with Octapeptin C4 at 2 μg/mL, CBD MIC taken as 256 μg/mL
  FICI: 1.25 and 1.5
CBD with Octapeptin C4 at 4 μg/mL, CBD MIC taken as 256 μg/mL
  FICI: 0.5 and 1
CBD with Octapeptin C4 at […], CBD MIC taken as 256 μg/mL
  FICI: 1.016
CBD with Spero SPR206, 1st of 3 experiments
  FICI range: 1-4
CBD with Spero SPR206, 3rd of 3 experiments
  FICI range: 1.13-5
CBD with Spero SPR206 at 0.25 μg/mL, 1st of 3 experiments, CBD MIC taken as 256 μg/mL
  FICI: 1.25
CBD with Spero SPR206 at 0.25 μg/mL, 3rd of 3 experiments, CBD MIC taken as 256 μg/mL
  FICI: 1.25
CBD with Spero SPR206 at 0.5 μg/mL, 1st of 3 experiments, CBD MIC taken as 256 μg/mL
  FICI: 1.5
CBD with Spero SPR206 at 0.5 μg/mL, 3rd of 3 experiments, CBD MIC taken as 256 μg/mL
  FICI: 1.5
CBD with Spero SPR206 at 1 μg/mL, 1st of 3 experiments, CBD MIC taken as 256 μg/mL
  FICI: 1
CBD with Spero SPR206 at 1 μg/mL, 3rd of 3 experiments, CBD MIC taken as 256 μg/mL
  FICI: 2
CBD with Spero SPR206 at 2 μg/mL, 1st of 3 experiments, CBD MIC taken as 256 μg/mL
  FICI: 2
CBD with Spero SPR206 at 2 μg/mL, 3rd of 3 experiments, CBD MIC taken as 256 μg/mL
  FICI: 3
CBD with Spero SPR206 at 4 μg/mL, 1st of 3 experiments, CBD MIC taken as 256 μg/mL
  FICI: 4
CBD with Spero SPR206 at 4 μg/mL, 3rd of 3 experiments, CBD MIC taken as 256 μg/mL
  FICI: 5
CBD with Ticarcillin at 2 μg/mL, Pseudomonas aeruginosa ATCC 27853
  FICI: 1.0625
CBD with Ticarcillin at 4 μg/mL, Pseudomonas aeruginosa ATCC 27853
  FICI: 1.25
CBD with Ticarcillin at 8 μg/mL, Pseudomonas aeruginosa ATCC 27853, listed as CBD
  FICI: 1.25 and 1.5
CBD with Ticarcillin at 16 μg/mL, Pseudomonas aeruginosa ATCC 27853, listed as CBD
  FICI: 0.5 and 1
CBD with Ticarcillin at 32 μg/mL, Pseudomonas aeruginosa ATCC 27853, listed as CBD
  FICI: 1 and 2
CBD with Ticarcillin at 64 μg/mL, Pseudomonas aeruginosa ATCC 27853, listed as CBD
  FICI: 2 and 4
CBD with Ticarcillin, Pseudomonas aeruginosa ATCC 27853
  FICI range (Synergy table): 0.5
Cefotetan at 4 μg/mL
  CBD MIC with Cefotetan: >32 µg/mL
Cefotetan at 4 μg/mL, Pseudomonas aeruginosa ATCC 27853
  CBD MIC with Cefotetan: >256 µg/mL
Cefotetan at 8 μg/mL
  CBD MIC with Cefotetan: >32 µg/mL
Cefotetan at 8 μg/mL, Pseudomonas aeruginosa ATCC 27853
  CBD MIC with Cefotetan: >256 µg/mL
Cefotetan at 16 μg/mL
  CBD MIC with Cefotetan: >32 µg/mL
Cefotetan at 16 μg/mL, Pseudomonas aeruginosa ATCC 27853
  CBD MIC with Cefotetan: >256 µg/mL
Cefotetan at 32 μg/mL
  CBD MIC with Cefotetan: >32 µg/mL
Cefotetan at 32 μg/mL, Pseudomonas aeruginosa ATCC 27853
  CBD MIC with Cefotetan: >256 µg/mL
Cefotetan at 64 μg/mL
  CBD MIC with Cefotetan: >32 µg/mL
Cefotetan at 64 μg/mL, Pseudomonas aeruginosa ATCC 27853
  CBD MIC with Cefotetan: >256 µg/mL
